# Results taken from US20170107179A1 (Tetraphase Pharmaceuticals, Inc., priority 2010, published 2017).
# Like-named read-outs stand apart in the source and are kept apart here.
# Columns and labels:
# S. aureus Smith = assay: Mouse systemic infection (septicemia) model, CD-1 mice; conditions: Staphylococcus aureus, in Mus musculus, 48 h; for responders at 3 mg/kg: iv, read-out: Percent survival at 48 hours, IV (3 mg/kg); for responders at 30 mg/kg: po, read-out: Percent survival at 48 hours, PO (30 mg/kg)
# [1] = system: Gram-negative and Gram-positive organisms (clinical isolates); assay: Broth microdilution MIC against clinical isolates (CLSI M7-A8), Table 9; assay type: cell-based
# [2] = Stenotrophomonas maltophilia, n=29
# [3] = Klebsiella aerogenes, Enterobacter aerogenes, n=30
# [4] = Klebsiella pneumoniae, Klebsiella pneumonia, n=27
# [5] = Salmonella species, n=30, read-out: MIC50
# [6] = Streptococcus intermedius, n=30
molecule,measurement,setting,value
CC[C@H](C)N1Cc2c(O)c3c(c(Cl)c2C1)C[C@H]1C[C@H]2[C@H](N(C)C)C(O)=C(C(N)=O)C(=O)[C@@]2(O)C(O)=C1C3=O [Compound 110],responders at 3 mg/kg,S. aureus Smith,33%
same,responders at 30 mg/kg,S. aureus Smith,50%
CCC(C)(C)N1Cc2c(O)c3c(c(OC)c2C1)C[C@H]1C[C@H]2[C@H](N(C)C)C(O)=C(C(N)=O)C(=O)[C@@]2(O)C(O)=C1C3=O [Compound 119],responders at 3 mg/kg,S. aureus Smith,83%
same,responders at 30 mg/kg,S. aureus Smith,75%
CC(C)C[C@@H]1C(=O)Nc2c(O)c3c(c(F)c2CN1C)C[C@H]1C[C@H]2[C@H](N(C)C)C(O)=C(C(N)=O)C(=O)[C@@]2(O)C(O)=C1C3=O [Compound 428],responders at 3 mg/kg,S. aureus Smith,50%
same,responders at 30 mg/kg,S. aureus Smith,0%
colistin,MIC50,"[1]; Acinetobacter lwoffii, n=29",≦0.12 μg/ml
same,MIC90,"[1]; Acinetobacter lwoffii, n=29",>2 µg/mL
same,MIC50,"[1]; Enterobacter aerogenes, n=30",≦0.12 μg/ml
same,MIC90,"[1]; Enterobacter aerogenes, n=30",≦0.12 μg/ml
same,MIC50,"[1]; Enterobacter cloacae, n=29",≦0.12 μg/ml
same,MIC90,"[1]; Enterobacter cloacae, n=29",>2 µg/mL
same,MIC50,"[1]; Escherichia coli, n=40",0.25 µg/mL
same,MIC90,"[1]; Escherichia coli, n=40",0.5 µg/mL
same,MIC50,"[1]; Kiebsielia oxytoca, n=30",≦0.12 μg/ml
same,MIC90,"[1]; Kiebsielia oxytoca, n=30",0.25 µg/mL
same,MIC50,"[1]; Klebsiella pneumonia, n=27",0.25 µg/mL
same,MIC90,"[1]; Klebsiella pneumonia, n=27",0.5 µg/mL
same,MIC50,"[1]; Morganella morganii, n=30",>2 µg/mL
same,MIC90,"[1]; Morganella morganii, n=30",>2 µg/mL
same,MIC50,"[1]; Proteus vulgaris, n=29",>2 µg/mL
same,MIC90,"[1]; Proteus vulgaris, n=29",>2 µg/mL
same,MIC50,"[1]; Salmonella species, n=30",≦0.12 μg/ml
same,MIC90,"[1]; Salmonella species, n=30",0.5 µg/mL
same,MIC50,"[1]; Serratia marcescens, n=30",>2 µg/mL
same,MIC90,"[1]; Serratia marcescens, n=30",>2 µg/mL
same,MIC50,"[1]; Shigella species, n=30",≦0.12 μg/ml
same,MIC90,"[1]; Shigella species, n=30",≦0.12 μg/ml
same,MIC50,[1]; [2],0.25 µg/mL
same,MIC90,[1]; [2],>2 µg/mL
CC(C)(O/N=C(\C(=O)N[C@@H]1C(=O)N2C(C(=O)[O-])=C(C[n+]3ccccc3)CS[C@H]12)c1csc(N)n1)C(=O)O [Ceftazidime],MIC50,"[1]; Acinetobacter lwoffii, n=29",1 µg/mL
same,MIC90,"[1]; Acinetobacter lwoffii, n=29",16 µg/mL
same,MIC50,"[1]; Enterobacter cloacae, n=29",> 64 µg/mL
same,MIC90,"[1]; Enterobacter cloacae, n=29",> 64 µg/mL
same,MIC50,"[1]; Escherichia coli, n=40",64 µg/mL
same,MIC90,"[1]; Escherichia coli, n=40",> 64 µg/mL
same,MIC50,"[1]; Kiebsielia oxytoca, n=30",≤ 0.5 µg/mL
same,MIC90,"[1]; Kiebsielia oxytoca, n=30",≤ 0.5 µg/mL
same,MIC50,[1]; [3],≤ 0.5 µg/mL
same,MIC90,[1]; [3],16 µg/mL
same,MIC50,[1]; [4],> 64 µg/mL
same,MIC90,[1]; [4],> 64 µg/mL
same,MIC50,"[1]; Morganella morganii, n=30",≤ 0.5 µg/mL
same,MIC90,"[1]; Morganella morganii, n=30",4 µg/mL
same,MIC50,"[1]; Proteus vulgaris, n=29",≤ 0.5 µg/mL
same,MIC90,"[1]; Proteus vulgaris, n=29",> 64 µg/mL
same,MIC50,[1]; [5],≤ 0.5 µg/mL
same,MIC50,"[1]; Serratia marcescens, n=30",≤ 0.5 µg/mL
same,MIC90,"[1]; Serratia marcescens, n=30",≤ 0.5 µg/mL
same,MIC50,[1]; [2],8 µg/mL
same,MIC90,[1]; [2],> 64 µg/mL
CN(C)[C@@H]1C(O)=C(C(N)=O)C(=O)[C@@]2(O)C(O)=C3C(=O)c4c(O)c5c(c(Cl)c4C[C@H]3C[C@@H]12)CN(C(C)(C)C)C5 [Compound 144],responders at 3 mg/kg,S. aureus Smith,50%
same,responders at 30 mg/kg,S. aureus Smith,0%
CC[C@@H](C)N1Cc2c(O)c3c(c(F)c2C1)C[C@H]1C[C@H]2[C@H](N(C)C)C(O)=C(C(N)=O)C(=O)[C@@]2(O)C(O)=C1C3=O [Compound 130],responders at 3 mg/kg,S. aureus Smith,33%
same,responders at 30 mg/kg,S. aureus Smith,83%
CN(C)[C@@H]1C(O)=C(C(N)=O)C(=O)[C@@]2(O)C(O)=C3C(=O)c4c(O)c5c(c(F)c4C[C@H]3C[C@@H]12)CN(C(=O)CN1CC[C@H](F)C1)C5 [Compound 147],responders at 3 mg/kg,S. aureus Smith,83%
same,responders at 30 mg/kg,S. aureus Smith,0%
C[C@@H](O)[C@H]1C(=O)N2C(C(=O)O)=C(S[C@@H]3CN[C@H](C(=O)Nc4cccc(C(=O)O)c4)C3)[C@H](C)[C@H]12 [Ertapenem],MIC50,"[1]; Acinetobacter lwoffii, n=29, read-out: MIC50",≤ 1 µg/mL
same,MIC90,"[1]; Acinetobacter lwoffii, n=29, read-out: MIC90",4 µg/mL
same,MIC50,"[1]; Enterobacter cloacae, n=29",≤ 1 µg/mL
same,MIC90,"[1]; Enterobacter cloacae, n=29",> 8 µg/mL
same,MIC50,"[1]; Escherichia coli, n=40",≤ 1 µg/mL
same,MIC90,"[1]; Escherichia coli, n=40",≤ 1 µg/mL
same,MIC50,"[1]; Kiebsielia oxytoca, n=30",≤ 1 µg/mL
same,MIC90,"[1]; Kiebsielia oxytoca, n=30",≤ 1 µg/mL
same,MIC50,[1]; [3],≤ 1 µg/mL
same,MIC90,[1]; [3],≤ 1 µg/mL
same,MIC50,[1]; [4],≤ 1 µg/mL
same,MIC90,[1]; [4],8 µg/mL
same,MIC50,"[1]; Morganella morganii, n=30",≤ 1 µg/mL
same,MIC90,"[1]; Morganella morganii, n=30",≤ 1 µg/mL
same,MIC50,"[1]; Proteus vulgaris, n=29",≤ 1 µg/mL
same,MIC90,"[1]; Proteus vulgaris, n=29",≤ 1 µg/mL
same,MIC50,[1]; [5],≤ 1 µg/mL
same,MIC50,"[1]; Serratia marcescens, n=30",≤ 1 µg/mL
same,MIC90,"[1]; Serratia marcescens, n=30",≤ 1 µg/mL
same,MIC50,"[1]; Staphylococcus aureus, Staphylococcus aureus (MRSA PVL+), n=30, read-out: MIC50",4 µg/mL
same,MIC90,"[1]; Staphylococcus aureus, Staphylococcus aureus (MRSA PVL+), n=30, read-out: MIC90",8 µg/mL
same,MIC50,[1]; [2],> 8 µg/mL
same,MIC90,[1]; [2],> 8 µg/mL
same,MIC50,"[1]; Streptococcus anginosus, n=20",0.12 µg/mL
same,MIC90,"[1]; Streptococcus anginosus, n=20",0.25 µg/mL
same,MIC50,[1]; [6],0.06 µg/mL
same,MIC90,[1]; [6],0.5 µg/mL
same,MIC50,"[1]; Streptococcus mitis, n=29",0.25 µg/mL
same,MIC90,"[1]; Streptococcus mitis, n=29",> 1 µg/mL
same,MIC50,"[1]; Streptococcus sanguis, n=18, read-out: MIC50",0.12 µg/mL
same,MIC90,"[1]; Streptococcus sanguis, n=18, read-out: MIC90",0.5 µg/mL
CC[C@@H](C)N1Cc2c(O)c3c(c(C(F)(F)F)c2C1)C[C@H]1C[C@H]2[C@H](N(C)C)C(O)=C(C(N)=O)C(=O)[C@@]2(O)C(O)=C1C3=O [Compound 128],responders at 3 mg/kg,S. aureus Smith,17%
same,responders at 30 mg/kg,S. aureus Smith,0%
CC(C)N1Cc2c(O)c3c(c(C(F)(F)F)c2C1)C[C@H]1C[C@H]2[C@H](N(C)C)C(O)=C(C(N)=O)C(=O)[C@@]2(O)C(O)=C1C3=O [Compound 126],responders at 3 mg/kg,S. aureus Smith,83%
same,responders at 30 mg/kg,S. aureus Smith,100%
